{"source": "paper PMC11111404", "about": "“Discovery of potent small-molecule inhibitors of lipoprotein(a) formation” (Nature, 2024)", "key": {"Lp(a)": {"system": "Lp(a)", "experiment": "Lp(a) levels in cynomolgus monkeys", "format": "in vivo, cynomolgus monkey (Macaca fascicularis)", "set-up": "Lp(a): unit not given here", "settings": "for pCFB (Lp(a) pct_chng_from_baseline) / Lp(a): cynomolgus monkey, individual animals", "description": "Female or male Chinese Macaca fascicularis cynomolgus monkeys (as described in the figure legends) of unspecified ages with body weight ranging from 2.0 kg to 5.0 kg were housed in cages with a standard light cycle (12-h light, 12-h dark) at room temperature (20–26 °C); the relative humidity ranged from 30% to 70%. Monkeys were given fruits, vegetables or dietary enrichment as a form of environmental enrichment, and various cage enrichment devices. Purina Lab diet 5048C was provided BID and individual monkeys were identified by cage card. The monkeys were randomized to treatment groups by body weight and baseline plasma Lp(a) concentration, as determined by a commercially available Randox assay (Randox LP2757), using a BRAT for the study. In an example cynomolgus monkey study in which 39 monkeys were prescreened for baseline Lp(a) levels, the average Lp(a) level was 350 ± 57 µg ml^−1 (range 53–1,667 µg ml^−1). Monkeys were dosed orally with vehicle (purified water) or compounds QD or BID for 14 days, at dose levels and frequencies as previously described for each compound. Plasma samples were collected on days before dosing to establish baseline Lp(a) and after the morning dose during the study. Lp(a) levels were measured by an investigator who was blinded to group allocation using the Randox assay, and were quantified relative to the calibrator series (Randox LP3404). Data were analysed in GraphPad Prism v.9.5.1. The Lp(a) percentage change from before dosing in non-human primates was analysed by repeated measures ANOVA in SAS v.9.4 (SAS). At each time point, the Lp(a) percentage change for each treated group was compared with vehicle by the Bonferroni method."}, "plasmin activity": {"target": "T1, plasmin activity (Rattus norvegicus, UniProt Q01177)", "T1 construct": "Plasma samples were collected via the abdominal aorta; from tissue; host or cells: Citrated plasma of orally dosed male Sprague Dawley rats", "T1 sequence (Q01177 20-812 limits assumed)": "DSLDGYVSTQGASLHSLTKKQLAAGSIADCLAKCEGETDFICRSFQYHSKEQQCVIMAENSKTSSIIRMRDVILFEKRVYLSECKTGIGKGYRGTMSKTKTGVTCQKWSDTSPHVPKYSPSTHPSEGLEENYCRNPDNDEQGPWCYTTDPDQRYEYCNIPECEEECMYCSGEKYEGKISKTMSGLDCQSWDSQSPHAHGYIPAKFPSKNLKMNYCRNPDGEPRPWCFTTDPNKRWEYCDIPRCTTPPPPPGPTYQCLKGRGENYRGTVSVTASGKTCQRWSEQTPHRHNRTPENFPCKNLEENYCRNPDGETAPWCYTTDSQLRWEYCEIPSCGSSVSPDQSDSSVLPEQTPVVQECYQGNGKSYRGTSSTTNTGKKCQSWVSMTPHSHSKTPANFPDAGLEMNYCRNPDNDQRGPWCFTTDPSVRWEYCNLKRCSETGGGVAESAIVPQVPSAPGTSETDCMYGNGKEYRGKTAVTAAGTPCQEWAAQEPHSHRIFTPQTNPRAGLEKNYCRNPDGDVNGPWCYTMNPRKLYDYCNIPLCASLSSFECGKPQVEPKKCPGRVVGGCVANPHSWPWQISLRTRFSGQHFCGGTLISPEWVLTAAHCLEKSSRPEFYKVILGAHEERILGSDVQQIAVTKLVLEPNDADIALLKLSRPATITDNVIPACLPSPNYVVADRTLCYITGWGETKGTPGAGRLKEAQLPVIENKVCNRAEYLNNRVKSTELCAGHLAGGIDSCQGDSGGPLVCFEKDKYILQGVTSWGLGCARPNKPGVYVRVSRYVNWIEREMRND", "experiment": "Rat plasma plasmin (plasminogen) activity ex vivo after oral dosing", "format": "in vivo", "settings": "rat plasma, individual animal; for PLG activity (Vmax), % change from Vehicle: vehicle mean 431.7", "description": "Male Sprague Dawley rats (Charles River, average body weight 310 g, aged eight to nine weeks old) were housed in cages with a standard light cycle (12-h light, 12-h dark), at room temperature (22 ± 4 °C), with a relative humidity of 30–70%. Rats were identified by numbers on the cage cards. After arrival, rats were fed on a normal diet (Harlan Teklad diet 2014) and randomized to treatment groups (n = 5 per group) by baseline plasma plasminogen concentration and activity using a BRAT. LSN3441732 and LY3473329 were administered QD orally at three dose levels (3.7, 12.3 and 37 mg kg^−1; 3.2, 10.5 and 31.6 mg kg^−1 per dose, respectively) or vehicle (10 ml kg^−1, 1% HEC, 0.25% Tween-80, Antifoam) for four days. Terminal blood was drawn under general anaesthesia 24 h after the day-4 oral dose. Plasma samples were collected via the abdominal aorta into a premeasured anticoagulant BD Vacutainer used for blood collection (2.7 ml, buffered sodium citrate). The liver was flash frozen in liquid nitrogen. To measure plasminogen activity, 100 µl plasma per well was added to a 96-well plate (Corning) and the following were added to the indicated concentrations: 7.5 mM CaCl2 and 117 mM NaCl. Wells were mixed and warmed to 37 °C. Urokinase (Millipore) was added at 125 U per well and the plate was incubated at 37 °C for 4 min. The plasminogen substrate Chromogenix S-2251 (DiaPharma) was added to a concentration of 3.3 mM. The mixture was added and the plate was sealed and placed in a prewarmed plate reader, shaken, and the absorbance read every 30 s for 2 h. The maximum slope for each curve was determined and the percentage inhibition was calculated relative to untreated controls. Plasminogen protein was measured using ELISA kits for rat (Abcam ab157740) according to the manufacturer’s instructions. Plasminogen activity (percentage) and mass (µg ml^−1) in rat were analysed by ANOVA in JMP 16.1.0. The percentage reduction of plasminogen activity and mass for each treated group was compared with vehicle by Dunnett’s method."}, "[1]": {"settings": "3473329 dose 3.2 mpk, 3.2 mg/kg"}, "[2]": {"settings": "3473329 dose 10.5 mpk, 10.5 mg/kg"}, "[3]": {"settings": "3473329 dose 31.6 mpk, 31.6 mg/kg"}}, "note": "“And” between values parts separate entries of the source, which are not always exact repeats. Identical values can stand only once."}
{"molecule": "O=C(O)[C@@H](Cc1cccc(CN(Cc2cccc(C[C@H](C(=O)O)[C@H]3CCNC3)c2)Cc2cccc(C[C@H](C(=O)O)[C@H]3CCNC3)c2)c1)[C@H]1CCNC1", "note": "[LY3473329]", "values": [{"measurement": "pCFB (Lp(a) pct_chng_from_baseline)", "setting": "Lp(a); 1mpk, Day 5, 1 mg/kg", "result": "-22.1371 and -5.098 and -28.881 and -15.8475 and 3.588 and -15.9311"}, {"measurement": "Lp(a)", "setting": "Lp(a); 1mpk, Day 9, 4hr, 1 mg/kg", "result": "81.717 and 123.954 and 9.293 and 31.114 and 64.385"}, {"measurement": "pCFB (Lp(a) pct_chng_from_baseline)", "setting": "Lp(a); 1mpk, Day 9, 1 mg/kg", "result": "-25.7489 and 7.768 and -40.9481 and -41.984 and -4.946 and -25.2635"}, {"measurement": "pCFB (Lp(a) pct_chng_from_baseline)", "setting": "Lp(a); 1mpk, Day 14, 1 mg/kg", "result": "-43.1939 and -2.975 and -53.0914 and -46.914 and -15.7924 and -42.2472"}, {"measurement": "Lp(a)", "setting": "Lp(a); 10mpk group, Day 1, Pre dose (baseline), 10 mg/kg", "result": "63.144 and 63.676 and 112.151 and 49.481 and 65.725 and 30.09"}, {"measurement": "pCFB (Lp(a) pct_chng_from_baseline)", "setting": "Lp(a); 10mpk, Day 1, 10 mg/kg", "result": "-0.54 and 5.215 and -3.008 and -7.112 and -1.928 and 0.1728"}, {"measurement": "pCFB (Lp(a) pct_chng_from_baseline)", "setting": "Lp(a); 10mpk, Day 3, 10 mg/kg", "result": "-40.1463 and -31.9398 and -31.5575 and -28.9606 and -53.8653 and -27.9495"}, {"measurement": "Lp(a)", "setting": "Lp(a); 10mpk, Day 5, 4hr, 10 mg/kg", "result": "69.663 and 26.971 and 31.738 and 21.72"}, {"measurement": "pCFB (Lp(a) pct_chng_from_baseline)", "setting": "Lp(a); 10mpk, Day 5, 10 mg/kg", "result": "-39.4923 and -41.2165 and -37.8846 and -45.4922 and -51.7109 and -27.8166"}, {"measurement": "Lp(a)", "setting": "Lp(a); 10mpk, Day 9, 4hr, 10 mg/kg", "result": "37.879 and 46.471 and 59.699 and 19.275 and 28.08 and 18.466"}, {"measurement": "pCFB (Lp(a) pct_chng_from_baseline)", "setting": "Lp(a); 10mpk, Day 9, 10 mg/kg", "result": "-40.0117 and -27.0196 and -46.7691 and -61.0457 and -57.2765 and -38.6308"}, {"measurement": "Lp(a)", "setting": "Lp(a); 10mpk, Day 14, 4hr, 10 mg/kg", "result": "27.525 and 31.412 and 53.912 and 14.404 and 16.367 and 13.601"}, {"measurement": "pCFB (Lp(a) pct_chng_from_baseline)", "setting": "Lp(a); 10mpk, Day 14, 10 mg/kg", "result": "-56.4092 and -50.669 and -51.9291 and -70.8898 and -75.0978 and -54.7989"}, {"measurement": "Lp(a)", "setting": "Lp(a); 100mpk group, Day 1, Pre dose (baseline), 100 mg/kg", "result": "63.503 and 134.003 and 31.483 and 50.567 and 61.834"}, {"measurement": "Lp(a)", "setting": "Lp(a); 100mpk, Day 1, 4hr, 100 mg/kg", "result": "57.552 and 102.207 and 18.95 and 36.698 and 61.471"}, {"measurement": "pCFB (Lp(a) pct_chng_from_baseline)", "setting": "Lp(a); 100mpk, Day 1, 100 mg/kg", "result": "-39.8088 and -27.427 and -0.5871 and -9.371 and -23.7278"}, {"measurement": "Lp(a)", "setting": "Lp(a); 100mpk, Day 3, 4hr, 100 mg/kg", "result": "37.977 and 67.885 and 16.507 and 23.074 and 46.465"}, {"measurement": "pCFB (Lp(a) pct_chng_from_baseline)", "setting": "Lp(a); 100mpk, Day 3, 100 mg/kg", "result": "-47.5685 and -54.3695 and -24.8553 and -40.1965 and -49.3407"}, {"measurement": "Lp(a)", "setting": "Lp(a); 100mpk, Day 5, 4hr, 100 mg/kg", "result": "41.338 and 90.201 and 17.421 and 23.304 and 43.695"}, {"measurement": "pCFB (Lp(a) pct_chng_from_baseline)", "setting": "Lp(a); 100mpk, Day 5, 100 mg/kg", "result": "-32.6873 and -44.6654 and -53.9146 and -29.335 and -34.9039"}, {"measurement": "Lp(a)", "setting": "Lp(a); 100mpk, Day 9, 4hr, 100 mg/kg", "result": "23.771 and 69.54 and 11.012 and 15.587 and 35.753"}, {"measurement": "pCFB (Lp(a) pct_chng_from_baseline)", "setting": "Lp(a); 100mpk, Day 9, 100 mg/kg", "result": "-48.1056 and -65.0224 and -69.1755 and -42.1791 and -62.5671"}, {"measurement": "Lp(a)", "setting": "Lp(a); 100mpk, Day 14, 4hr, 100 mg/kg", "result": "22.568 and 43.526 and 4.973 and 14.913 and 14.296"}, {"measurement": "pCFB (Lp(a) pct_chng_from_baseline)", "setting": "Lp(a); 100mpk, Day 14, 100 mg/kg", "result": "-67.5186 and -84.2042 and -70.5084 and -76.88 and -64.4615"}, {"measurement": "reduction of median Lp(a) levels compared with baseline", "setting": "Lp(a); cynomolgus monkeys, 100 mg kg^−1 QD", "result": "up to 71%"}, {"measurement": "PLG activity (Vmax), Plasminogen (mean of replicates)", "setting": "plasmin activity; [1]", "result": "454.0 and 451.6 and 414.5 and 449.4 and 437.1"}, {"measurement": "PLG activity (Vmax), Replicate 1", "setting": "plasmin activity; [1]", "result": "455.671 and 447.416 and 413.515 and 443.630 and 436.745"}, {"measurement": "PLG activity (Vmax), Replicate 2", "setting": "plasmin activity; [1]", "result": "452.252 and 455.835 and 415.508 and 455.110 and 437.378"}, {"measurement": "PLG activity (Vmax), % change from Vehicle", "setting": "plasmin activity; [1]", "result": "5.15% and 4.60% and -3.99% and 4.08% and 1.23%"}, {"measurement": "PLG activity (Vmax), Plasminogen (mean of replicates)", "setting": "plasmin activity; [2]", "result": "426.8 and 390.7 and 429.5 and 340.1 and 383.7"}, {"measurement": "PLG activity (Vmax), Replicate 1", "setting": "plasmin activity; [2]", "result": "431.402 and 387.065 and 425.922 and 337.633 and 378.355"}, {"measurement": "PLG activity (Vmax), Replicate 2", "setting": "plasmin activity; [2]", "result": "422.258 and 394.290 and 433.134 and 342.491 and 389.046"}, {"measurement": "PLG activity (Vmax), % change from Vehicle", "setting": "plasmin activity; [2]", "result": "-1.14% and -9.51% and -0.51% and -21.24% and -11.13%"}, {"measurement": "PLG activity (Vmax), Plasminogen (mean of replicates)", "setting": "plasmin activity; [3]", "result": "357.4 and 336.9 and 317.3 and 381.6 and 333.2"}, {"measurement": "PLG activity (Vmax), Replicate 1", "setting": "plasmin activity; [3]", "result": "356.862 and 337.031 and 314.998 and 380.162 and 336.487"}, {"measurement": "PLG activity (Vmax), Replicate 2", "setting": "plasmin activity; [3]", "result": "357.898 and 336.831 and 319.531 and 383.010 and 329.925"}, {"measurement": "PLG activity (Vmax), % change from Vehicle", "setting": "plasmin activity; [3]", "result": "-17.22% and -21.96% and -26.52% and -11.62% and -22.82%"}]}
